Legend:
Assay in all cases: KINOMEscan
Format in all cases: binding
[1] = biological target: ABL1(T315I)-nonphosphorylated (Homo sapiens (Human), UniProt P00519, T315I); conditions: 10000 nM, read-out: Percent Control
ABL1-nonphosphorylated = ABL1-nonphosphorylated (Homo sapiens (Human), UniProt P00519); conditions: 10000 nM, read-out: Percent Control
ABL1-phosphorylated = ABL1-phosphorylated (Homo sapiens (Human), UniProt P00519); conditions: 10000 nM, read-out: Percent Control
ACVR1B = ACVR1B (Homo sapiens (Human), UniProt P36896); conditions: 10000 nM, read-out: Percent Control
ACVRL1 = ACVRL1 (Homo sapiens (Human), UniProt P37023); conditions: ACVRL1, 10000 nM; read-out: Percent Control
ALK = ALK (Homo sapiens (Human), UniProt Q9UM73); conditions: 10000 nM, read-out: Percent Control
AURKC = AURKC (Homo sapiens (Human), UniProt Q9UQB9); conditions: 10000 nM, read-out: Percent Control
BMX = BMX (Homo sapiens (Human), UniProt P51813); conditions: 10000 nM, read-out: Percent Control
BRAF(V600E) = BRAF(V600E) (Homo sapiens (Human), UniProt P15056, V600E); conditions: 10000 nM, read-out: Percent Control
CAMK1B = CAMK1B (Homo sapiens (Human), UniProt Q6P2M8); conditions: 10000 nM, read-out: Percent Control
CDK9 = CDK9 (Homo sapiens (Human), UniProt P50750); conditions: CDK9, 10000 nM; read-out: Percent Control
CLK3 = CLK3 (Homo sapiens (Human), UniProt P49761); conditions: CLK3, 10000 nM; read-out: Percent Control
DCAMKL3 = DCAMKL3 (Homo sapiens (Human), UniProt Q9C098); conditions: DCAMKL3, 10000 nM; read-out: Percent Control
[2] = biological target: EGFR(L747-S752del, P753S) (Homo sapiens (Human), UniProt P00533, DEL747-752/P753S); conditions: 10000 nM, read-out: Percent Control
EPHA6 = EPHA6 (Homo sapiens (Human), UniProt Q9UF33); conditions: EPHA6, 10000 nM; read-out: Percent Control
ERBB2 = ERBB2 (Homo sapiens (Human), UniProt P04626); conditions: ERBB2, 10000 nM; read-out: Percent Control
ERK5 = ERK5 (Homo sapiens (Human), UniProt Q13164); conditions: ERK5, 10000 nM; read-out: Percent Control
FER = FER (Homo sapiens (Human), UniProt P16591); conditions: 10000 nM, read-out: Percent Control
HCK = HCK (Homo sapiens (Human), UniProt P08631); conditions: 10000 nM, read-out: Percent Control
KIT = KIT (Homo sapiens (Human), UniProt P10721); conditions: 10000 nM, read-out: Percent Control
MAP3K1 = MAP3K1 (Homo sapiens (Human), UniProt Q13233); conditions: MAP3K1, 10000 nM; read-out: Percent Control
MAP4K2 = MAP4K2 (Homo sapiens (Human), UniProt Q12851); conditions: MAP4K2, 10000 nM; read-out: Percent Control
MEK4 = MEK4 (Homo sapiens (Human), UniProt P45985); conditions: MEK4, 10000 nM; read-out: Percent Control
MTOR = MTOR (Homo sapiens (Human), UniProt P42345); conditions: 10000 nM, read-out: Percent Control
MUSK = MUSK (Homo sapiens (Human), UniProt O15146); conditions: 10000 nM, read-out: Percent Control
p38-alpha = p38-alpha (Homo sapiens (Human), UniProt Q16539); conditions: 10000 nM, read-out: Percent Control
PHKG1 = PHKG1 (Homo sapiens (Human), UniProt Q16816); conditions: PHKG1, 10000 nM; read-out: Percent Control
PIK3CA(E545A) = PIK3CA(E545A) (Homo sapiens (Human), UniProt P42336, E545A); conditions: 10000 nM, read-out: Percent Control
PIK3CA(E545K) = PIK3CA(E545K) (Homo sapiens (Human), UniProt P42336, E545K); conditions: 10000 nM, read-out: Percent Control
PIK4CB = PIK4CB (Homo sapiens (Human), UniProt Q9UBF8); conditions: 10000 nM, read-out: Percent Control
PKN2 = PKN2 (Homo sapiens (Human), UniProt Q16513); conditions: PKN2, 10000 nM; read-out: Percent Control
[3] = biological target: RSK1(Kin.Dom.1-N-terminal) (Homo sapiens (Human), UniProt Q15418); conditions: 10000 nM, read-out: Percent Control
[4] = biological target: RSK2(Kin.Dom.2-C-terminal) (Homo sapiens (Human), UniProt P51812); conditions: 10000 nM, read-out: Percent Control
TAOK2 = TAOK2 (Homo sapiens (Human), UniProt Q9UL54); conditions: TAOK2, 10000 nM; read-out: Percent Control
TRKA = TRKA (Homo sapiens (Human), UniProt P04629); conditions: 10000 nM, read-out: Percent Control
TRPM6 = TRPM6 (Homo sapiens (Human), UniProt Q9BX84); conditions: TRPM6, 10000 nM; read-out: Percent Control

Sequence of MUSK (O15146 24-869): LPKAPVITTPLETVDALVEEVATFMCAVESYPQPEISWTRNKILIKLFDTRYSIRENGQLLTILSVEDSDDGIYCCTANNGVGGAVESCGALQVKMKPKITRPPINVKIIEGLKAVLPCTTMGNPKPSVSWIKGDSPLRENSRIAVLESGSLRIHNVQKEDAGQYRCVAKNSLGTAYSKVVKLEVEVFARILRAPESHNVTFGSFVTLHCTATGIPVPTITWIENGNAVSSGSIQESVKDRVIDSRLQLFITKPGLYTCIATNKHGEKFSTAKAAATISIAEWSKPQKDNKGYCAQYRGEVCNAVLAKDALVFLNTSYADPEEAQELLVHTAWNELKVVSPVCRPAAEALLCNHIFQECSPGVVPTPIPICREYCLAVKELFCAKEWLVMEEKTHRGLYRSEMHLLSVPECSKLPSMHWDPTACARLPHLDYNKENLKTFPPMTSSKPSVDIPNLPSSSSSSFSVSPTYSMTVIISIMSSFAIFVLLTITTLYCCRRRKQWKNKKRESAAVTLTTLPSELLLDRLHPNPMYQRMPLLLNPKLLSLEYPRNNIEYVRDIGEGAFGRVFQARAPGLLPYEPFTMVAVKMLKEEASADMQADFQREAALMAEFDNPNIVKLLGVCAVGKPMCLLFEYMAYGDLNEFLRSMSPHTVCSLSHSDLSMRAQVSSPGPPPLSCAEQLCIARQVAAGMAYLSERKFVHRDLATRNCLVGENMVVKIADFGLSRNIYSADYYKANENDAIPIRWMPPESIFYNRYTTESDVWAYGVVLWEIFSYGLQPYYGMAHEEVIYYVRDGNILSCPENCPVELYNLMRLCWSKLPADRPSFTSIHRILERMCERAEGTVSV
Sequence of ERK5 (Q13164 whole entry): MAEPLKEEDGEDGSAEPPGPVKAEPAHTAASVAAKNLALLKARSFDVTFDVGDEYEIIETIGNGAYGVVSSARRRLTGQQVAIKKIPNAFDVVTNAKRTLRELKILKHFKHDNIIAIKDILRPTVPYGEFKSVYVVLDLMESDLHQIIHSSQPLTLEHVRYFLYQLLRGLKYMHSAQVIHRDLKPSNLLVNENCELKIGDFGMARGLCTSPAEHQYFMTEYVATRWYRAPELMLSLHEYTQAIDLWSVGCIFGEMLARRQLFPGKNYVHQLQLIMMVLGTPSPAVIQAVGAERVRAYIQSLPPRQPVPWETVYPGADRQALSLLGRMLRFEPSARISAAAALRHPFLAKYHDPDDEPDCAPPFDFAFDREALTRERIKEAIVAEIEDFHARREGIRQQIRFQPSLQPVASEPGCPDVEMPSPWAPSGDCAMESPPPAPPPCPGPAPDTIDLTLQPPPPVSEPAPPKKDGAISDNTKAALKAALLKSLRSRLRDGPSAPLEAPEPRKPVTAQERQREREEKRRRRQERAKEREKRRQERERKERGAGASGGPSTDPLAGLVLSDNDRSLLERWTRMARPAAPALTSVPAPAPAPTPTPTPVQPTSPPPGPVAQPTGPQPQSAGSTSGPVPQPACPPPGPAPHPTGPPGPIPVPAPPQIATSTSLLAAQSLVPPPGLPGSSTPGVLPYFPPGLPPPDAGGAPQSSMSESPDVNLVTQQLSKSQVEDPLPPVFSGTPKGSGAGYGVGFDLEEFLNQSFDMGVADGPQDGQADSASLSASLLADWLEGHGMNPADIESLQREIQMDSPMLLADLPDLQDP
Sequence of KIT (P10721 26-976): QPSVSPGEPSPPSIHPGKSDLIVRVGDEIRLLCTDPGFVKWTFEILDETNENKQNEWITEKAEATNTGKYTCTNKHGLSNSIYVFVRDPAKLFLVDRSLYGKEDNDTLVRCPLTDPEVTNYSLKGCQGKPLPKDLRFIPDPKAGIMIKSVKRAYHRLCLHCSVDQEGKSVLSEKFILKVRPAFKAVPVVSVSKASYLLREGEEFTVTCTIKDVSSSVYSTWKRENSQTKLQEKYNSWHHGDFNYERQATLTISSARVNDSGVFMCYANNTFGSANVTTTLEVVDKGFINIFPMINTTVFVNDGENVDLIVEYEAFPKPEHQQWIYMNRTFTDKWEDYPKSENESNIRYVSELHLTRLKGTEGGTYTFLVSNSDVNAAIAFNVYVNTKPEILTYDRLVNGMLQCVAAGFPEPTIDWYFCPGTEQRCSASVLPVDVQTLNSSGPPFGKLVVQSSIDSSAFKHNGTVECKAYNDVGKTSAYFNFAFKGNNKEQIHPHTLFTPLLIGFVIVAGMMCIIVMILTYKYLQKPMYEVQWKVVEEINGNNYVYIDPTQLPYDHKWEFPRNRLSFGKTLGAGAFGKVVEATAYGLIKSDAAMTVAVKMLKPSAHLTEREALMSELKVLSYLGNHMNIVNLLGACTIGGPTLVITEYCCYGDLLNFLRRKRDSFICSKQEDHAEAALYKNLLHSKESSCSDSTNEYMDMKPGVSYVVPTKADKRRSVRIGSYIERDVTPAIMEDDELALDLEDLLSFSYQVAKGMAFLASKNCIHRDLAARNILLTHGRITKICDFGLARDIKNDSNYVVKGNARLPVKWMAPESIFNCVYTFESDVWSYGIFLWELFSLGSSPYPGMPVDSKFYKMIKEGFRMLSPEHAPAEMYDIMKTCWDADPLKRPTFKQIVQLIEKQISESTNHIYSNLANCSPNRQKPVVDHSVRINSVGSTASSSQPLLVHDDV
Sequence of CAMK1B (Q6P2M8 whole entry): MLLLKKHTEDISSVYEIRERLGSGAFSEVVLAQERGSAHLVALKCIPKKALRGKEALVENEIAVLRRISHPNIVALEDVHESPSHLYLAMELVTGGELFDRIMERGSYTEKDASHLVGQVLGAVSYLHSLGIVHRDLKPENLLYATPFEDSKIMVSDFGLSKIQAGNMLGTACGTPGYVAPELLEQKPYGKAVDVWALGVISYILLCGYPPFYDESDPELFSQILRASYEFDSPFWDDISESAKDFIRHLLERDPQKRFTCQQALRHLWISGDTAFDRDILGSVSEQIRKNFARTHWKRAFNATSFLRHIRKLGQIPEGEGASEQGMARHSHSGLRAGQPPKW
Sequence of PKN2 (Q16513 whole entry): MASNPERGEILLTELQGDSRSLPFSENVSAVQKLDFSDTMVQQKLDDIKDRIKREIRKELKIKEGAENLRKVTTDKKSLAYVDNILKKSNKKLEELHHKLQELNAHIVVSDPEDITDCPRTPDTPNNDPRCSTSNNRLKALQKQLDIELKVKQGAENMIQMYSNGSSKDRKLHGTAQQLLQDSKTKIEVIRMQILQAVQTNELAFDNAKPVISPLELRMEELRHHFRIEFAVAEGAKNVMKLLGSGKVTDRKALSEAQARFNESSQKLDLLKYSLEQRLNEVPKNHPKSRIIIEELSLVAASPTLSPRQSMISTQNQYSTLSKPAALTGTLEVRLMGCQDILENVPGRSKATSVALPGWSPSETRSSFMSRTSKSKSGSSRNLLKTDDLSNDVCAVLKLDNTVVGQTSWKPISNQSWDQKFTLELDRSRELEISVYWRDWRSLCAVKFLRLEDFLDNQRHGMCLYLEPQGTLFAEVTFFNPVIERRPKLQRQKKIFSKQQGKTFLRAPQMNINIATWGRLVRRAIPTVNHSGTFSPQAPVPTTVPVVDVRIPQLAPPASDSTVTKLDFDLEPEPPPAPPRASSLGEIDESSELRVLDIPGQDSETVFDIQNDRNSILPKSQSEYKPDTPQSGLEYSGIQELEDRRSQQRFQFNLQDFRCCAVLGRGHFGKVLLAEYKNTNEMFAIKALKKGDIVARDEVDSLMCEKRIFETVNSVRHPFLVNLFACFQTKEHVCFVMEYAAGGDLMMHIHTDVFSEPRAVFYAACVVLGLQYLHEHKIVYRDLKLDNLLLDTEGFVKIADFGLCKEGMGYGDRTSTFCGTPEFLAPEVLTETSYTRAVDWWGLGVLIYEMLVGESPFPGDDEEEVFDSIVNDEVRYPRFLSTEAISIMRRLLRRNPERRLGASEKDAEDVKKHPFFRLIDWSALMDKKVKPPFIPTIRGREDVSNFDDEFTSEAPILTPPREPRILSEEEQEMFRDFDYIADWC
Sequence of ACVRL1 (P37023 22-503): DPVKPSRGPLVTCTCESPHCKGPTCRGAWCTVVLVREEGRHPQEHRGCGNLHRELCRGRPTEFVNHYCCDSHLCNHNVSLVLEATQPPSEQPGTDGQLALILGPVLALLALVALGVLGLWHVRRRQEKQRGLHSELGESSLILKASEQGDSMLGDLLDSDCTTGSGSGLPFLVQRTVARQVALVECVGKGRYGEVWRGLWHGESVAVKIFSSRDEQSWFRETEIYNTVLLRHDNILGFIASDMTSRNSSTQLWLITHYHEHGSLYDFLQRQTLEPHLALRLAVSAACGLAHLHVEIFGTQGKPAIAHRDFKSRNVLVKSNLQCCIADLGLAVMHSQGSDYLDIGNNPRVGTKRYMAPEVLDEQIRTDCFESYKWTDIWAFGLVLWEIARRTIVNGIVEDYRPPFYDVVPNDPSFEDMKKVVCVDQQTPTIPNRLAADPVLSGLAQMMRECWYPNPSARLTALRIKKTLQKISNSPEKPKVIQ
Sequence of HCK (P08631 whole entry): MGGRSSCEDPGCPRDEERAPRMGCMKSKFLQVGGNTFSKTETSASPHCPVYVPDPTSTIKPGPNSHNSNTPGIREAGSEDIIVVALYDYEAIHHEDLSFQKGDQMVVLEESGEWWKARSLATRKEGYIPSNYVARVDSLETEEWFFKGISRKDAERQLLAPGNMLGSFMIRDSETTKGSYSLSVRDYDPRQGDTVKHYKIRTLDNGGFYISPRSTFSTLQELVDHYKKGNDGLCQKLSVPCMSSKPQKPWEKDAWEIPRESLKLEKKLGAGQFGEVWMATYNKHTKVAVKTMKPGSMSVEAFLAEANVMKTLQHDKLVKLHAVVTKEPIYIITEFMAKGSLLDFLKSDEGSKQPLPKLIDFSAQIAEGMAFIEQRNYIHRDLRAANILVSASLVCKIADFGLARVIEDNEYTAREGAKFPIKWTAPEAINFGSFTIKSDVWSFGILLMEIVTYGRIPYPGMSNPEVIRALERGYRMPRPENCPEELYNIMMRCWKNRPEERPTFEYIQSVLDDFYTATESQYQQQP

| Compound | remaining binding at 10 µM [1] [%] | remaining binding at 10 µM (ABL1-nonphosphorylated) [%] | remaining binding at 10 µM (ABL1-phosphorylated) [%] | remaining binding at 10 µM (ACVR1B) [%] | remaining binding at 10 µM (ACVRL1) [%] | remaining binding at 10 µM (ALK) [%] | remaining binding at 10 µM (AURKC) [%] | remaining binding at 10 µM (BMX) [%] | remaining binding at 10 µM (BRAF(V600E)) [%] | remaining binding at 10 µM (CAMK1B) [%] | remaining binding at 10 µM (CDK9) [%] | remaining binding at 10 µM (CLK3) [%] | remaining binding at 10 µM (DCAMKL3) [%] | remaining binding at 10 µM [2] [%] | remaining binding at 10 µM (EPHA6) [%] | remaining binding at 10 µM (ERBB2) [%] | remaining binding at 10 µM (ERK5) [%] | remaining binding at 10 µM (FER) [%] | remaining binding at 10 µM (HCK) [%] | remaining binding at 10 µM (KIT) [%] | also measured |
| --- | --- | --- | --- | --- | --- | --- | --- | --- | --- | --- | --- | --- | --- | --- | --- | --- | --- | --- | --- | --- | --- |
| COc1cc(N2CCC(N3CCN(C)CC3)CC2)ccc1Nc1ncc2c(n1)N(C)c1sc(C)nc1C(=O)N2 [Compound 3, 6-((2-methoxy-4-(4-(4-methylpiperazin-1-yl)piperidin-1-yl)phenyl)amino)-2,4-dimethyl-4,9-dihydro-10H-pyrimido[5,4-b]thiazolo[5,4-e][1,4]diazepin-10-one] | 100 | 25 | 17 | 80 | 96 | 100 | 95 | 76 | 100 | 95 | 74 | 97 | 81 | 99 | 83 | 98 | 80 | 74 | 69 | 54 | remaining binding at 10 µM (MAP3K1): 100%; remaining binding at 10 µM (MAP4K2): 100%; remaining binding at 10 µM (MEK4): 100%; remaining binding at 10 µM (MTOR): 85%; remaining binding at 10 µM (MUSK): 92%; remaining binding at 10 µM (p38-alpha): 75%; remaining binding at 10 µM (PHKG1): 78%; remaining binding at 10 µM (PIK3CA(E545A)): 84%; remaining binding at 10 µM (PIK3CA(E545K)): 90%; remaining binding at 10 µM (PIK4CB): 85%; remaining binding at 10 µM (PKN2): 100%; remaining binding at 10 µM [3]: 78%; remaining binding at 10 µM [4]: 100%; remaining binding at 10 µM (TAOK2): 95%; remaining binding at 10 µM (TRKA): 100%; remaining binding at 10 µM (TRPM6): 100% |
| COc1cc(N2CCC(N3CCN(C)CC3)CC2)ccc1Nc1ncc2c(n1)N(C)c1sc(C)nc1C(=O)N2C [Compound 5, 6-((2-methoxy-4-(4-(4-methylpiperazin-1-yl)piperidin-1-yl)phenyl)amino)-2,4,9-trimethyl-4,9-dihydro-10H-pyrimido[5,4-b]thiazolo[5,4-e][1,4]diazepin-10-one] | 100 | 77 | 79 | 95 | 99 | 99 | 100 | 90 | 97 | 92 | 98 | 97 | 86 | 91 | 86 | 100 | 30 | 57 | 95 | 100 | remaining binding at 10 µM (MAP3K1): 100%; remaining binding at 10 µM (MAP4K2): 94%; remaining binding at 10 µM (MEK4): 100%; remaining binding at 10 µM (MTOR): 31%; remaining binding at 10 µM (MUSK): 100%; remaining binding at 10 µM (p38-alpha): 93%; remaining binding at 10 µM (PHKG1): 84%; remaining binding at 10 µM (PIK3CA(E545A)): 100%; remaining binding at 10 µM (PIK3CA(E545K)): 100%; remaining binding at 10 µM (PIK4CB): 100%; remaining binding at 10 µM (PKN2): 100%; remaining binding at 10 µM [3]: 83%; remaining binding at 10 µM [4]: 99%; remaining binding at 10 µM (TAOK2): 93%; remaining binding at 10 µM (TRKA): 100%; remaining binding at 10 µM (TRPM6): 92% |

Source: patent publication US12365696B2, “Small-molecule focal adhesion kinase (FAK) inhibitors” (DANA-FARBER CANCER INSTITUTE, INC., priority 2019, dated 2025)
